Results reported in paper PMC9011347, “Small-Molecule Inhibitors Targeting Lipolysis in Human Adipocytes” (Journal of the American Chemical Society, 2022).

Key:
Experiment in all cases: Off-target lipid hydrolase assay, Expi293 lysates, p-NPV substrate
Format in all cases: biochemical
Conditions in all cases: NG-497 100 µM, substrate pNPV
[1] = molecular target: T1, DDHD domain-containing protein 2 (DDHD2) (Homo sapiens, UniProt O94830)
T1 construct: made in house; host or cells: Expi293 cells, lysate
Method: (§1) Fig. S3: Investigation of off-target effects of NG-497 on structurally and functionally related lipid hydrolases. (a) PNPLA1-dependent formation of acylceramides was monitored in a cell-based assay in HEK293T cells. Experiments were performed in the presence or absence of NG-497 (40 µM) and the non-selective lipase inhibitor Orlistat (40 µM). Orlistat, but not NG-497, inhibited PNPLA1/CGI-58-dependent ω-O-acylceramide formation. (b-h) Enzymes were overexpressed in Expi293 cells and cell lysates were used as source of enzymatic activity. Cell lysates were incubated with the indicated substrates 1-oleoyl phosphatidylcholine (LPC), di-oleoyl phosphatidic acid (PA), di-octanoyl phosphatidylglycerol (PG), or para-nitrophenylvalerate (pNPV). Experiments were performed in the presence or absence of NG-497 (100 µM) and the formation of reaction products was monitored. Cell lysates of LacZ-transfected cells were used to detect basal cellular activity. As positive controls, enzymes were inactivated with lipase inhibitors Orlistat (40 µM), R-BEL (10 µM), KLH-45 (20 nM), HSLi (10 µM), or PMSF (10µM).
(§2) Data were calculated relative to the basal activity detected in LacZ-transfected controls. (i) Activity of purified human pancreatic lipase in the presence or absence of NG-497 (100 µM) and Orlistat (20 µM) using radiolabeled triolein as substrate. (j) Inhibition of LPL and HL by NG-497 (100 µM) was investigated in human post-heparin plasma using radiolabeled triolein as substrate.
(§3) LPL activity was inhibited using an anti-LPL antibody. All data are presented as mean ± S.D. Statistical significance was determined via ANOVA followed by Bonferroni post hoc test ( ***, p < 0.001).
(§4) (1 picture or pasted object on this page, not shown here)
(§5) Co-immunoprecipitation. […]
(§6) Analysis of toxicity in HepG2 hepatocytes. […] Release of LDH into the medium was analyzed using the Cytotoxicity Detection Kit PLUS (LDH) (MilliporeSigma) according to the manufacturer’s instructions. Cytotoxicity was calculated as relative LDH release as compared to fully lysed cells. […]

HSL = HSL (Homo sapiens, UniProt Q05469)
Method: as §1, §2, §3, §4, §5, §6

[2] = molecular target: T2, carboxylesterase 2 (CES2) (Homo sapiens, UniProt O00748)
T2 construct: made in house; host or cells: Expi293 cells, lysate
Method: as §1, §2, §3, §4, §5, §6

T2 sequence (O00748 27-559): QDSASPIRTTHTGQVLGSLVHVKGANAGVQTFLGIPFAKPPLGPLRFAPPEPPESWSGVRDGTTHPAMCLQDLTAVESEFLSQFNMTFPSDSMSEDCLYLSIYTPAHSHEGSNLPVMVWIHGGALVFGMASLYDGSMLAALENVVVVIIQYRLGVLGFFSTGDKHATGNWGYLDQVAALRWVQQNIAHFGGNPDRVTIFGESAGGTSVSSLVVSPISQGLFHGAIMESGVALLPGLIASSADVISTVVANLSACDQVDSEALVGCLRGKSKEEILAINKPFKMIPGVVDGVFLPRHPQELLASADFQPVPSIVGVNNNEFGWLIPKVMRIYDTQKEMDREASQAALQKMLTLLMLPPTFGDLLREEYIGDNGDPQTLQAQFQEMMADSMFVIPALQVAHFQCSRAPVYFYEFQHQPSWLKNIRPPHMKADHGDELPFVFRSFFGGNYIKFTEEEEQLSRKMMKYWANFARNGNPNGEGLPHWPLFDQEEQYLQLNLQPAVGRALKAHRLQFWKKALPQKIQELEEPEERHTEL
HSL, sequence (Q05469 302-1076 limits assumed): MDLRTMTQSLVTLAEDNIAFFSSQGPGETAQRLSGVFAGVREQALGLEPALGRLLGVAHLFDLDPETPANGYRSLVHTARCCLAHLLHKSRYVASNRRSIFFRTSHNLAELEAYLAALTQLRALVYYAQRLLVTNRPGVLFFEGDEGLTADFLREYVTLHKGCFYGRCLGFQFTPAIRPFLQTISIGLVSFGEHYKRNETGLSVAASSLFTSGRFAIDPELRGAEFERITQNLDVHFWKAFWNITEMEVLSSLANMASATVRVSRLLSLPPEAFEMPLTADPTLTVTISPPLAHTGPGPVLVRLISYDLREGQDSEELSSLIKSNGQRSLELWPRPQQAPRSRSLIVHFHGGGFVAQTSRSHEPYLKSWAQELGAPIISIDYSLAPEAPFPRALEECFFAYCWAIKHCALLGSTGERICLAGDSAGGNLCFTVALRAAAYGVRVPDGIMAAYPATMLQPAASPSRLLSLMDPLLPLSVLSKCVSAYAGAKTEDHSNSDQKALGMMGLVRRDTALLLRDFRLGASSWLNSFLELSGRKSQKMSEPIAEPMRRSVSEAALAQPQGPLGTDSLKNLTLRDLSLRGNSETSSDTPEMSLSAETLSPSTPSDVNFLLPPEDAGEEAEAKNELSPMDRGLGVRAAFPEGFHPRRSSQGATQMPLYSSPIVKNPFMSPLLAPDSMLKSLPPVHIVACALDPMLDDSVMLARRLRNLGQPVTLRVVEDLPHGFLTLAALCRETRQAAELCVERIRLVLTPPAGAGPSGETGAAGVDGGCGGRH
T1 sequence (O94830 whole entry, the tested form may be a part): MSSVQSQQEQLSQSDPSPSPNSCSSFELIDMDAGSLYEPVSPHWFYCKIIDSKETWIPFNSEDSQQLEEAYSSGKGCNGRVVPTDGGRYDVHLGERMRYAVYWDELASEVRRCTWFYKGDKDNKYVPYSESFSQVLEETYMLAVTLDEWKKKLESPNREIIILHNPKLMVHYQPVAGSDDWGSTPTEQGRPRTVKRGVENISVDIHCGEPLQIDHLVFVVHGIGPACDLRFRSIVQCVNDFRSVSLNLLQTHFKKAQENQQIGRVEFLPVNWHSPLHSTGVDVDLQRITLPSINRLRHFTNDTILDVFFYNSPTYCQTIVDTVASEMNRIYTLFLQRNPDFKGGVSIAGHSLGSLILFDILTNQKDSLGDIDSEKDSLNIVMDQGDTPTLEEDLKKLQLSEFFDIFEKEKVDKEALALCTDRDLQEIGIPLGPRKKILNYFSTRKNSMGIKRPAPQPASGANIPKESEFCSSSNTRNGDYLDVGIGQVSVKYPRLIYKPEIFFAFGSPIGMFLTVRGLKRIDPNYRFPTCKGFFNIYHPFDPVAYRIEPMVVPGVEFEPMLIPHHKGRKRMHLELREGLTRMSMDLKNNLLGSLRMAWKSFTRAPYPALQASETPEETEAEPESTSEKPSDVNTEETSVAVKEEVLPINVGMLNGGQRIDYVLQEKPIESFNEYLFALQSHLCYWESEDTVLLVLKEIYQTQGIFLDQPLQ

CCOc1ccc(-c2cc(OC)cc(C(=O)OC(C)C)n2)cc1 [NG-497]
did not observe inhibition: inhibition of DDHD2 [1] | inhibition of HSL (HSL) | inhibition of CES2 [2]
